Laboratory results reported in ChEMBL document CHEMBL1144971, “Azido-containing aryl beta-diketo acid HIV-1 integrase inhibitors” (Bioorg Med Chem Lett, 2003).
pIC50: −log10 of the molar value.

Experiments:
[1] = biological target: T1, Human immunodeficiency virus type 1 integrase (Human immunodeficiency virus 1, UniProt Q7ZJM1); experiment: (§1) Inhibitory concentration against Recombinant HIV-1 integrase (3'processing)
[2] = biological target: T1, Human immunodeficiency virus type 1 integrase; experiment: (§2) Inhibitory concentration against Recombinant HIV-1 integrase (Standard transfer reaction)
MT4 [3] = experiment: Antiviral potency was measured in HIV-1IIIb infected MT-4 human T-lymphoid cells; type: functional, cell-based
[4] = biological target: T1, Human immunodeficiency virus type 1 integrase; experiment: as §1; remark: listed apart in the source
MT4 [5] = experiment: Cytotoxic concentration was measured against MT-4 human T-lymphoid cells; type: functional
[6] = biological target: T1, Human immunodeficiency virus type 1 integrase; experiment: as §2; remark: listed apart in the source

T1 sequence (Q7ZJM1 whole entry): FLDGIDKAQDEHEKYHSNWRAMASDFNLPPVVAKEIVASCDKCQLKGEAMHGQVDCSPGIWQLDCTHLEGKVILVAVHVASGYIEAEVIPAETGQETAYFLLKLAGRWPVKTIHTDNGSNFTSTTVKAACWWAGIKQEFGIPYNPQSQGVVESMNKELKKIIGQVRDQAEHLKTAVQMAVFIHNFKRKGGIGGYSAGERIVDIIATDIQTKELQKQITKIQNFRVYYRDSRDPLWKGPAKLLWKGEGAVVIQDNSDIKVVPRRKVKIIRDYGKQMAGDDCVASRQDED

Compound	pIC50 [1]	pIC50 [2]	pIC50 (MT4 [3])	pIC50 [4]	CC50 (MT4 [5])	pIC50 [6]
[N-]=[N+]=NC1CC(N=[N+]=[N-])c2cc(C(=O)CC(=O)C(=O)O)ccc21 (stereo not given)	< 4.00	6.44	< 4.60	–	–	–
O=C(O)C(=O)CC(=O)c1cccc(OCc2ccccc2)c1	4.07	6.46	6.22	4.00	–	–
O=C(O)C(=O)CC(=O)c1cc(OCc2ccccc2)cc(OCc2ccccc2)c1	< 4.00	6.32	5.72	–	> 50 µM	–
COc1ccc(CN=[N+]=[N-])cc1C(=O)CC(=O)C(=O)O	–	–	4.87	–	–	–
[N-]=[N+]=NCc1cc(CN=[N+]=[N-])cc(C(=O)CC(=O)C(=O)O)c1	< 4.00	5.70	5.30	–	> 50 µM	5.55
COc1ccc(C(=O)CC(=O)C(=O)O)cc1CN=[N+]=[N-]	< 4.00	5.05	< 4.60	–	–	5.07
[N-]=[N+]=NCc1ccc(C(=O)CC(=O)C(=O)O)cc1	< 4.00	5.15	< 4.60	–	–	5.21
CC(C)Oc1ccc(CN=[N+]=[N-])cc1C(=O)CC(=O)C(=O)O	< 4.00	4.64	5.23	–	–	4.60
[N-]=[N+]=NCc1cccc(C(=O)CC(=O)C(=O)O)c1	< 4.00	5.82	5.68	–	> 50 µM	–
N#CCCc1cccc(C(=O)CC(=O)C(=O)O)c1	< 4.00	5.74	< 4.60	–	–	5.82
[N-]=[N+]=NCc1ccc(C(=O)CC(=O)C(=O)O)cc1CN=[N+]=[N-]	< 4.00	6.82	4.84	–	> 50 µM	6.59
[N-]=[N+]=NC1CCC(N=[N+]=[N-])c2cc(C(=O)CC(=O)C(=O)O)ccc21 (stereo not given)	4.15	6.49	4.81	–	–	–
